# Assay results reported in patent US8623429B2, “Stabilized anthocyanin compositions” (Omnica GmbH, priority 2007, dated 2014).
# Experiments:
# Assay type in all cases: physicochemical
# [1] = Example 3: stability of black currant extract anthocyanosides, 4 hours at 37° C., pH 7.0, with/without DHLA, GSH or L-cysteine (HPLC); conditions: for Peak Area, Fresh solution: black currant extract 60 mg/100 ml buffer pH 7.0, fresh sample; for % left, DHLA 20 mg / % left, GSH 20 mg / % left, L-cysteine 20 mg / Peak Area, DHLA 20 mg / Peak Area, GSH 20 mg / Peak Area, L-cysteine 20 mg / % left, Blank / Peak Area, Blank: pH 7.0, 37° C., 4 hours; for % left, Blank / Peak Area, Blank: unprotected
# Description: (§1) Sample a) 60 mg black currant extract [35% anthocyanosides] (0.037 mmol anthocyanosides expressed as cyanidin-3-O-rutinoside) were added to a 100 ml flask and filled to volume with sodium phosphate buffer (5% [w/w], pH=7.0) and stirred until dissolution was complete. A 1 ml sample was taken immediately, acidified with formic acid to pH=1.0 and analyzed by HPLC for the content of anthocyanosides (Fresh Sample). The remaining solution was kept for 4 hours at 37° C. (water bath) with stirring. Thereafter samples (Blank sample), representing unprotected degradation, were taken and acidified.
# (§2) Sample b) 20 mg reduced L-glutathione (0.065 mmol) were added to a 100 ml flask with 60 ml sodium phosphate buffer (5% [w/w], pH=7.0) and stirred until dissolution was complete. 60 mg black currant extract [35% anthocyanosides] (0.037 mmol anthocyanosides expressed as cyanidin-3-O-rutinoside) were then added and the flask was filled to volume with sodium phosphate buffer (5% [w/w], pH=7.0) and kept for 4 hours at 37° C. (water bath) with stirring.
# as §2, with “Sample c)” for “Sample b)”, “mg dihydrolipoic acid (0.096” for “mg reduced L-glutathione (0.065”, “was completed.” for “was complete.”, “were” for “were then”, “added to” for “added and”, “the flask,” for “the flask was”
# as §2, with “Sample d)” for “Sample b)”, “mg L-cysteine acid (0.165” for “mg reduced L-glutathione (0.065”, “were” for “were then”, “added to” for “added and”, “the flask,” for “the flask was”
# After 4 hours samples were taken, acidified immediately with formic acid to pH=1.0 and analyzed by HPLC for the content of anthocyanosides. Degradation is expressed as decrease in peak area of individual peaks (calculated as % left after 4 hours).
# (§3) Samples were prepared as outlined below in HPLC Analytical Method. Test stability samples were immediately acidified (to block degradation) and injected undiluted following the detailed description provided below.
# HPLC Analytical Method (Materials, Instruments and Methods): […]
# [2] = Example 5: degradation over time of black currant anthocyanosides at 37° C., pH 7.0, with/without GSH (HPLC); conditions: pH 7.0, 37° C.; for %-residual anthocyanosides (% left): 4 hours
# Description: as §1, with “flask,” for “flask and”, “anthocyanosides.” for “anthocyanosides (Fresh Sample).”, “kept” for “kept for 4 hours”, “stirring and 1 ml” for “stirring. Thereafter”, “Samples),” for “sample),”, “every 15 minutes. The samples were analyzed for selected anthocyanosides by HPLC.” for “and acidified.”
# as §2, with “added,” for “then added and”, “for” for “for 4 hours”, “stirring. Every 15 minutes 1 ml samples were taken and analyzed for selected anthocyanosides by HPLC.” for “stirring.”
# as §3
# [3] = Example 8: oxidation of GSH to GSSG in buffer pH 7.0 at 37° C. with/without bilberry extract (HPLC); conditions: buffer pH 7.0, 37° C.
# Description: Sample a) 60 mg GSH (0.192 mmol) were placed into a 100 ml flask, dissolved and filled up to volume with sodium phosphate buffer (5% [w/w], pH=7.0). The sample was kept with stirring at 37° C. Samples were taken immediately after dissolution and after 1, 2, 3 and 4 hours of incubation. The samples were analyzed by HPLC for GSH and GSSG (representing the oxidized form of GSH).
# Sample b) 60 mg reduced L-glutathione (0.192 mmol) were added to a 100 ml flask with 60 ml sodium phosphate buffer (5% [w/w], pH=7.0) and stirred until dissolution was complete. 60 mg bilberry extract [37% anthocyanosides] (0.048 mmol expressed as cyanidin-3-O-glucoside) were added, the flask was filled to volume with sodium phosphate buffer (5% [w/w], pH=7.0) and kept at 37° C. (water bath) with stirring. Samples were taken immediately after dissolution and after 1, 2, 3 and 4 hours of incubation. The samples were analyzed by HPLC for GSH and GSSG (representing the oxidized form of GSH).
# as §3
# [4] = GSH protected sample (20 mg), 0:00 h
# [5] = GSH protected sample (20 mg), 0:15 h
# [6] = GSH protected sample (20 mg), 0:45 h
# [7] = GSH protected sample (20 mg), 1:00 h
# [8] = GSH protected sample (20 mg), 1:15 h
# [9] = GSH protected sample (20 mg), 1:45 h
# [10] = GSH protected sample (20 mg), 2:00 h
# [11] = GSH protected sample (20 mg), 2:15 h
# [12] = GSH protected sample (20 mg), 2:45 h
# [13] = GSH protected sample (20 mg), 3:00 h
# [14] = GSH protected sample (20 mg), 3:15 h
# [15] = GSH protected sample (20 mg), 3:45 h
# [16] = GSH protected sample (20 mg), 4:00 h
# [17] = GSH protected sample (20 mg), 4:15 h
smiles,measurement,setting,value
"C[C@@H]1O[C@@H](OC[C@H]2O[C@@H](Oc3cc4c(O)cc(O)cc4[o+]c3-c3ccc(O)c(O)c3)[C@H](O)[C@@H](O)[C@@H]2O)[C@H](O)[C@H](O)[C@H]1O [Cn-3-O-Rut, Cyanidin-3-O-rutinoside]","Peak Area, Fresh solution",[1],3539
same,"% left, DHLA 20 mg",[1],51.1%
same,"% left, GSH 20 mg",[1],65.0%
same,"% left, L-cysteine 20 mg",[1],38.9%
same,"Peak Area, DHLA 20 mg",[1],1809
same,"Peak Area, GSH 20 mg",[1],2299
same,"Peak Area, L-cysteine 20 mg",[1],1377
same,"% left, Blank",[1],33.4%
same,"Peak Area, Blank",[1],1183
same,Peak Area,"[2]; Blank sample, 0:00 h",3539.1
same,Peak Area,"[2]; Blank sample, 0:15 h",2707.4
same,Peak Area,"[2]; Blank sample, 0:30 h",2620.7
same,Peak Area,"[2]; Blank sample, 0:45 h",2342.2
same,Peak Area,"[2]; Blank sample, 1:00 h",2278.1
same,Peak Area,"[2]; Blank sample, 1:30 h",2130.7
same,Peak Area,"[2]; Blank sample, 1:45 h",2104.9
same,Peak Area,"[2]; Blank sample, 2:00 h",1894.9
same,Peak Area,"[2]; Blank sample, 2:15 h",1851.7
same,Peak Area,"[2]; Blank sample, 2:30 h",1790.9
same,Peak Area,"[2]; Blank sample, 2:45 h",1694.9
same,Peak Area,"[2]; Blank sample, 3:00 h",1573.5
same,Peak Area,"[2]; Blank sample, 3:15 h",1531.6
same,Peak Area,"[2]; Blank sample, 3:30 h",1370.4
same,Peak Area,"[2]; Blank sample, 3:45 h",1361.3
same,Peak Area,"[2]; Blank sample, 4:00 h",1182.9
same,%-residual anthocyanosides (% left),[2]; Blank,33%
same,Peak Area,[2]; [4],3473.6
same,Peak Area,[2]; [5],3108.1
same,Peak Area,[2]; [6],2964.3
same,Peak Area,[2]; [7],3015.3
same,Peak Area,[2]; [8],2958.5
same,Peak Area,[2]; [9],2688.8
same,Peak Area,[2]; [10],2777.8
same,Peak Area,[2]; [11],2579.6
same,Peak Area,[2]; [12],2447.1
same,Peak Area,[2]; [13],2534.7
same,Peak Area,[2]; [14],2366.8
same,Peak Area,[2]; [15],2274.2
same,Peak Area,[2]; [16],2298.9
same,Peak Area,[2]; [17],2199.7
same,%-residual anthocyanosides (% left),[2]; GSH-protected,66%
"C[C@@H]1O[C@@H](OC[C@H]2O[C@@H](Oc3cc4c(O)cc(O)cc4[o+]c3-c3cc(O)c(O)c(O)c3)[C@H](O)[C@@H](O)[C@@H]2O)[C@H](O)[C@H](O)[C@H]1O [Dp-3-O-Rut, Delphinidin-3-O-rutinoside]","Peak Area, Fresh solution",[1],5207
same,"% left, DHLA 20 mg",[1],51.7%
same,"% left, GSH 20 mg",[1],53.1%
same,"% left, L-cysteine 20 mg",[1],38.0%
same,"Peak Area, DHLA 20 mg",[1],2692
same,"Peak Area, GSH 20 mg",[1],2764
same,"Peak Area, L-cysteine 20 mg",[1],1975
same,"% left, Blank",[1],12.0%
same,"Peak Area, Blank",[1],626.2
same,Peak Area,"[2]; Blank sample, 0:00 h",5207.5
same,Peak Area,"[2]; Blank sample, 0:15 h",3604.2
same,Peak Area,"[2]; Blank sample, 0:30 h",3366.5
same,Peak Area,"[2]; Blank sample, 0:45 h",2787.9
same,Peak Area,"[2]; Blank sample, 1:00 h",2660.6
same,Peak Area,"[2]; Blank sample, 1:30 h",2299.5
same,Peak Area,"[2]; Blank sample, 1:45 h",2291.6
same,Peak Area,"[2]; Blank sample, 2:00 h",1825.7
same,Peak Area,"[2]; Blank sample, 2:15 h",1747.2
same,Peak Area,"[2]; Blank sample, 2:30 h",1552.5
same,Peak Area,"[2]; Blank sample, 2:45 h",1442.9
same,Peak Area,"[2]; Blank sample, 3:00 h",1235.4
same,Peak Area,"[2]; Blank sample, 3:15 h",1166.0
same,Peak Area,"[2]; Blank sample, 3:30 h",907.2
same,Peak Area,"[2]; Blank sample, 3:45 h",891.1
same,Peak Area,"[2]; Blank sample, 4:00 h",626.2
same,%-residual anthocyanosides (% left),[2]; Blank,12%
same,Peak Area,[2]; [4],5201.3
same,Peak Area,[2]; [5],4584.2
same,Peak Area,[2]; [6],4275.7
same,Peak Area,[2]; [7],4273.1
same,Peak Area,[2]; [8],4168.7
same,Peak Area,[2]; [9],3749.9
same,Peak Area,[2]; [10],3813.3
same,Peak Area,[2]; [11],3544.9
same,Peak Area,[2]; [12],3199.5
same,Peak Area,[2]; [13],3327.2
same,Peak Area,[2]; [14],2993.9
same,Peak Area,[2]; [15],2761.0
same,Peak Area,[2]; [16],2763.6
same,Peak Area,[2]; [17],2579.8
same,%-residual anthocyanosides (% left),[2]; GSH-protected,53%
"N[C@@H](CCC(=O)N[C@@H](CS)C(=O)NCC(=O)O)C(=O)O [GSH, reduced L-glutathione]",Peak Area,"[3]; GSH + bilberry Sample, 0 hours",4760
same,peak area Ratio %,"[3]; GSH + bilberry Sample, 0 hours",92.3%
same,Peak Area,"[3]; GSH + bilberry Sample, 1 hour",4071
same,peak area Ratio %,"[3]; GSH + bilberry Sample, 1 hour",79.0%
same,Peak Area,"[3]; GSH + bilberry Sample, 2 hours",3378
same,peak area Ratio %,"[3]; GSH + bilberry Sample, 2 hours",65.5%
same,Peak Area,"[3]; GSH + bilberry Sample, 3 hours",3045
same,peak area Ratio %,"[3]; GSH + bilberry Sample, 3 hours",59.1%
same,Peak Area,"[3]; GSH + bilberry Sample, 4 hours",2461
same,peak area Ratio %,"[3]; GSH + bilberry Sample, 4 hours",47.7%
same,Peak Area,"[3]; GSH Sample, 0 hours",4760
same,peak area Ratio %,"[3]; GSH Sample, 0 hours",92.3%
same,Peak Area,"[3]; GSH Sample, 1 hour",4744
same,peak area Ratio %,"[3]; GSH Sample, 1 hour",92.0%
same,Peak Area,"[3]; GSH Sample, 2 hours",4220
same,peak area Ratio %,"[3]; GSH Sample, 2 hours",81.9%
same,Peak Area,"[3]; GSH Sample, 3 hours",4053
same,peak area Ratio %,"[3]; GSH Sample, 3 hours",78.6%
same,Peak Area,"[3]; GSH Sample, 4 hours",3777
same,peak area Ratio %,"[3]; GSH Sample, 4 hours",73.3%
